Calls of active or inactive are those of the source. The calls are words filed in the database; no cut-off is given here.
Columns and labels:
MC3T3-E1 [1] = assay: Cytotoxicity against mouse MC3T3-E1 cells assessed as reduction in cell viability at >= 30 uM after 6 days by MTT assay; assay type: cell-based; conditions: mc3t3-e1, 144 h, time 6 day
MC3T3-E1 [2] = assay: Activation of alkaline phosphatase secretion in mouse MC3T3-E1 cells at >= 30 uM using 4-nitrophenyl phosphate as substrate after 6 days; assay type: cell-based; conditions: dose microM >=30, time 6.0 day
MC3T3-E1 [3] = assay: Osteogenic activity in mouse MC3T3-E1 cells assessed as mineralization at >= 30 uM after 6 days by Alizarin Red S staining-based method; assay type: functional, cell-based; conditions: dose microM >=30, time 6.0 day
MC3T3-E1 [4] = assay: Osteogenic activity in mouse MC3T3-E1 cells assessed as mineralization at 30 uM after 6 days by Alizarin Red S staining-based method; assay type: functional, cell-based; conditions: time 6.0 day
MC3T3-E1 [5] = assay: Activation of alkaline phosphatase secretion in mouse MC3T3-E1 cells at 30 uM using 4-nitrophenyl phosphate as substrate after 6 days; assay type: cell-based; conditions: time 6.0 day
MC3T3-E1 [6] = assay: Cytotoxicity against mouse MC3T3-E1 cells assessed as reduction in cell viability at 30 uM after 6 days by MTT assay; assay type: cell-based; conditions: mc3t3-e1, 144 h, time 6 day
MC3T3-E1 [7] = assay: Osteogenic activity in mouse MC3T3-E1 cells assessed as mineralization at 7.5 uM after 6 days by Alizarin Red S staining-based method; assay type: functional, cell-based; conditions: time 6.0 day
MC3T3-E1 [8] = assay: Osteogenic activity in mouse MC3T3-E1 cells assessed as mineralization at 15 uM after 6 days by Alizarin Red S staining-based method; assay type: functional, cell-based; conditions: time 6.0 day
MC3T3-E1 [9] = assay: Activation of alkaline phosphatase secretion in mouse MC3T3-E1 cells at 15 uM using 4-nitrophenyl phosphate as substrate after 6 days; assay type: cell-based; conditions: filed as activator, time 6.0 day

CCCCCCCC(=O)[C@H](C)C(=O)N(C)[C@H](Cc1ccc(OC)cc1)C(=O)N(C)[C@H](C(N)=O)C(C)C
Activity (MC3T3-E1 [1]): Non-Toxic | Activity (MC3T3-E1 [2]; filed as activator): Active | Activity (MC3T3-E1 [3]): Active

CCCCCCC[C@H](O)[C@@H](C)C(=O)N(C)[C@H](Cc1ccc(OC)cc1)C(=O)N(C)[C@H](C(N)=O)C(C)C
Activity (MC3T3-E1 [4]): inactive | Activity (MC3T3-E1 [5]; filed as activator): Active

CCCC(=O)[C@@H](C)C(=O)N(C)[C@H](Cc1ccc(OC)cc1)C(=O)N(C)[C@H](C(N)=O)C(C)C
Activity (MC3T3-E1 [4]): inactive | Activity (MC3T3-E1 [5]; filed as activator): Active

CCCCCCCC(=O)C(C)(C)C(=O)N(C)[C@H](Cc1ccc(OC)cc1)C(=O)N(C)[C@H](C(N)=O)C(C)C
Activity (MC3T3-E1 [2]; filed as activator): Active | Activity (MC3T3-E1 [3]): inactive

CCCCCCCC(=O)[C@@H](C)C(=O)N(C)[C@H](Cc1cc(Cl)c(OC)c(Cl)c1)C(=O)N(C)[C@H](C(N)=O)C(C)C
Activity (MC3T3-E1 [6]): Toxic | Activity (MC3T3-E1 [4]): inactive | Activity (MC3T3-E1 [5]): inactive

CCCCCCCC(=O)[C@@H](C)C(=O)N(C)[C@H](Cc1ccccc1)C(=O)N(C)[C@H](C(N)=O)C(C)C
Activity (MC3T3-E1 [2]; filed as activator): Active | Activity (MC3T3-E1 [3]): inactive

CCCCCCCC(=O)[C@@H](C)C(=O)N(C)[C@H](Cc1ccc(OC)cc1)C(=O)N(C)[C@@H](C)C(N)=O
Activity (MC3T3-E1 [7]): Active | Activity (MC3T3-E1 [2]; filed as activator): Active | Activity (MC3T3-E1 [8]): Active | Activity (MC3T3-E1 [4]): inactive

CCCCCCCC(=O)CC(=O)N(C)[C@H](Cc1ccc(OC)cc1)C(=O)N(C)[C@H](C(N)=O)C(C)C
Activity (MC3T3-E1 [2]; filed as activator): Active | Activity (MC3T3-E1 [3]): inactive

CCCCCCCC[C@H](C)C(=O)N(C)[C@H](Cc1ccc(OC)cc1)C(=O)N(C)[C@H](C(N)=O)C(C)C
Activity (MC3T3-E1 [2]): inactive | Activity (MC3T3-E1 [3]): inactive | Activity (MC3T3-E1 [4]): Active

CCCCCCCC[C@@H](C)C(=O)N(C)[C@H](Cc1ccc(OC)cc1)C(=O)N(C)[C@H](C(N)=O)C(C)C
Activity (MC3T3-E1 [2]): inactive | Activity (MC3T3-E1 [3]): inactive | Activity (MC3T3-E1 [4]): Active

CCCCCCCCCC(=O)[C@@H](C)C(=O)N(C)[C@H](Cc1ccc(OC)cc1)C(=O)N(C)[C@H](C(N)=O)C(C)C
Activity (MC3T3-E1 [9]): Active | Activity (MC3T3-E1 [6]): Toxic | Activity (MC3T3-E1 [8]): inactive

CCCCCCC[C@@H](O)[C@H](C)C(=O)N(C)[C@H](Cc1ccc(OC)cc1)C(=O)N(C)[C@H](C(N)=O)C(C)C
Activity (MC3T3-E1 [4]): Active | Activity (MC3T3-E1 [5]; filed as activator): Active

CCCCCCCC(=O)[C@@H](C)C(=O)N(C)[C@H](Cc1ccc(OC)cc1)C(=O)N(C)[C@H](C(N)=O)C(C)C
Activity (MC3T3-E1 [1]): Non-Toxic | Activity (MC3T3-E1 [2]; filed as activator): Active | Activity (MC3T3-E1 [3]): Active

CCCCCC(=O)[C@@H](C)C(=O)N(C)[C@H](Cc1ccc(OC)cc1)C(=O)N(C)[C@H](C(N)=O)C(C)C
Activity (MC3T3-E1 [4]): inactive | Activity (MC3T3-E1 [5]; filed as activator): Active

CCCCCCCCCC(=O)N(C)[C@H](Cc1ccc(OC)cc1)C(=O)N(C)[C@H](C(N)=O)C(C)C
Activity (MC3T3-E1 [6]): Toxic | Activity (MC3T3-E1 [2]; filed as activator): Active | Activity (MC3T3-E1 [3]): Active

From ChEMBL document CHEMBL4665750, “Structure-Activity Relationship Study of Majusculamides A and B and Their Analogues on Osteogenic Activity” (J Nat Prod, 2020)
